The values that follow come from patent US7713969B2, “Compositions and methods for treatment of cancer” (ArQule, Inc., priority 2005, dated 2010).

Assay [1] relates to MDA-MB-231 human breast cancer xenograft. The assay is described as follows: MDA-MB-231 xenograft, intraperitoneal 160 mg/kg (Example 81). The format is in vivo, mice. To be noted: 160 mg/kg intraperitoneally, q3d×10, lipiodol vehicle. As for the experimental part:
Athymic female nude mice (CRL:NU/NU-nuBR) were injected subcutaneously in the flank with MDA-MB-231 human breast cancer cells (8×10^6 cells/mouse). Prior to injection, MDA-MB-231 cells were cultured in DMEM (Invitrogen #11965-092) supplemented with 10% (v/v) heat inactivated fetal bovine serum (FBS), 1% Hepes buffer solution (Invitrogen #15630-080) and 1% Penicillin/Streptomycin (Invitrogen #15140-122) at 37° C. in 5% CO2. Tumors were allowed to grow to approximately 50 mm^3 in size. Animals were randomized into three groups of five animals per group. At day ten post injection, mice with established tumors were treated intraperitoneally with (±)-cis-3-(5,6-dihydro-4H-pyrrolo[3,2,1-ij]quinolin-1yl)-4(1H-indol-3-yl) pyrrolidine-2,5-dione (160 mg/kg), (±)-trans-3-(5,6-dihydro-4H-pyrrolo[3,2,1-ij]quinolin-1-yl)-4(1H-indol-3-yl)pyrrolidine-2,5-dione (160 mg/kg) administered in iodinated poppy seed oil (lipiodol) as the vehicle at 10 mg/ml, or vehicle control. Drug or vehicle was administered every three days for a total of ten doses (q3d×10). Tumor size was evaluated periodically during the study. For each subject, tumor volume was calculated using the formula (L×W^2)/2 where L and W were the length and width of the tumor, respectively. The arithmetic mean tumor volume was calculated for each treatment group+/−standard error of the mean (SEM). […]

Assay [2] deals with MDA-MB-231. As to the kind of experiment: Cell viability MTS assay. The format is cell-based, human. The gist of the method: (§1)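 Cells are seeded and incubated 16-24 hours, then given compound for 72 hours at 0.33% final DMSO. MTS and PMS are added for 4 hours, followed by SDS to 1.4%, and absorbance is read at 490 nm. IC50 marks a 50% drop in viable cells relative to DMSO-only wells.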
(Tetrazolium dyes change colour on reduction, which living cells bring about.)

Assay [3] relates to HT29. As to the kind of experiment: Cell viability MTS assay. In kind it is cell-based, human. Summed up: as §1
In assay [4] the test system is MDA-MB-231 human breast cancer xenograft. As to the kind of experiment: MDA-MB-231 xenograft, intraperitoneal 80 mg/kg (Example 82). To be noted: 80 mg/kg intraperitoneally, 5 days on/2 off, four cycles, DMA/PEG 400. In kind it is in vivo, mice. How it is done: Athymic female nude mice (CRL:NU/NU-nuBR) were injected subcutaneously in the flank with MDA-MB-231 human breast cancer cells (8×10^6 cells/mouse). Prior to injection, MDA-MB-231 cells were cultured in DMEM (Invitrogen #11965-092) supplemented with 10% (v/v) heat inactivated fetal bovine serum (FBS), 1% Hepes buffer solution (Invitrogen #15630-080) and 1% Penicillin/Streptomycin (Invitrogen #15140-122) at 37° C. in 5% CO2. Tumors were allowed to grow to approximately 50 mm^3 in size. Animals were randomized into three groups of eight animals per group. At day four post injection, mice with established tumors were treated intraperitoneally with (±)-Cis-3-(5,6-dihydro-4H-pyrrolo[3,2,1-ij]quinolin-1yl)-4(1H-indol-3-yl)pyrrolidine-2,5-dione (80 mg/kg), (±)-Trans-3-(5,6-dihydro-4H-pyrrolo[3,2,1-ij]quinolin-1-yl)-4(1H-indol-3-yl)pyrrolidine-2,5-dione (80 mg/kg) administered in DMA/PEG 400 (1:4 v/v) as the vehicle at 50 mg/ml, or vehicle control intraperitoneally. […] Tumor size was evaluated periodically during the study. For each subject, tumor volume was calculated using the formula (L×W^2)/2 where L and W were the length and width of the tumor, respectively. The arithmetic mean tumor volume was calculated for each treatment group+/−standard error of the mean (SEM). […]

In assay [5] the test system is Recombinant Protein Kinase C. The assay is described as follows: Protein Kinase C kinase reaction, Histone H1, autoradiography (Example 79). The format is biochemical. To be noted: 0.05, 0.5, or 10 μM, 15 minutes at room temperature. How it is done: Recombinant Protein Kinase C (Calbiochem) (100 ng) was incubated with (±)-cis-3-(5,6-dihydro-4H-pyrrolo[3,2,1-ij]quinolin-1yl)-4(1H-indol-3-yl)pyrrolidine-2,5-dione or (±)-trans-3-(5,6-dihydro-4H-pyrrolo[3,2,1-ij]quinolin-1-yl)-4(1H-indol-3-yl)pyrrolidine-2,5-dione at 0.05, 0.5, or 10 μM for 15 minutes at room temperature. Subsequently, a radioactive labeling mix in kinase buffer (20 mM Tris-HCl pH 7.5, 10 mM MgCl2) containing 20 μM ATP, 0.2 μCi/μl γ^32P-ATP, 0.2 μg/μl Histone H1 (Upstate) was added to each sample. The kinase reaction was carried out for 5 minutes at room temperature. Reaction products were analyzed by 12% SDS-PAGE and autoradiography.

For assay [6], the system named is MDA-MB-231 cells or Paca-2 cells. The assay is described as follows: Cell survival in six-well plates, Wright-Giemsa stain (Example 77). The format is cell-based. To be noted: Homo sapiens; 0.1-2 μM, cultures observed 10-15 days; cell line of the IC50 not stated. How it is done: Exponentially growing MDA-MB-231 cells or Paca-2 cells were seeded at 1,000 cells per well in six-well plates and allowed to attach for 24 hours. MDA-MB-231 and Paca-2 cells were cultured in DMEM supplemented with 10% (v/v) fetal calf serum (FCS) and 5 ml Penicillin/Streptomycin at 37° C. in 5% CO2. MDA-MB-231 and Paca-2 were established estrogen receptor negative human breast cancer and pancreatic carcinoma cell lines, respectively. (±)-cis-3-(5,6-dihydro-4H-pyrrolo[3,2,1-ij]quinolin-1yl)-4(1H-indol-3-yl)pyrrolidine-2,5-dione or (±)-trans-3-(5,6-dihydro-4H-pyrrolo[3,2,1-ij]quinolin-1-yl)-4(1H-indol-3-yl)pyrrolidine-2,5-dione were each dissolved at a concentration of 10 mM in DMSO, and separately added to cells at a concentration of 0.1, 0.25, 0.5, 1 or 2 μM. Control plates received DMSO alone, at the same percentage of total culture volume as that administered in conjunction with the highest concentration of drug. Cell cultures were observed daily for 10-15 days, then fixed and stained with modified Wright-Giemsa stain (Sigma). Treatment with (±)-cis-3-(5,6-dihydro-4H-pyrrolo [3,2,1-ij]quinolin-1yl)-4(1H-indol-3-yl)pyrrolidine-2,5-dione or (±)-trans-3-(5,6-dihydro-4H-pyrrolo[3,2,1-ij]quinolin-1-yl)-4(1H-indol-3-yl)pyrrolidine-2,5-dione results in cell death of MDA-MB-231 cells or Paca-2 cells. See, e.g., FIG. 2.

Assay [7] concerns MDA-MB-231 cells. As to the kind of experiment: Colony counting, surviving fraction (Example 78). The format is cell-based, human. To be noted: two days incubation, colonies counted two weeks later; read-out: IC50 (surviving fraction equaled 50). As for the experimental part:
MDA-MB-231 cells (ATCC# HTB-26), grown in DMEM plus 15% heat inactivated fetal bovine serum plus 10 mM HEPES pH 7.5, were plated in 60 mm plates (2×10^5 cells per plate). After two days candidate compounds in DMSO at various concentrations were diluted in media and added to individual plates such that the final DMSO concentration in the cell culture media was 0.1%. After two days incubation the culture was trypsinized, cells were washed with media, counted using a hemocytometer and 500 cells, including cell bodies, were plated in […] in media. Two weeks later the media was removed and the cell colonies were fixed with methanol for 10 minutes, stained with 1% crystal violet 10 minutes, washed with water and air dried. Cell colonies were visually counted when there were greater then 50 cells present per colony. Plating efficiency was defined as the average number of colonies formed divided by 500. The surviving fraction was defined as the plating efficiency of a candidate compound divided by the plating efficiency of DMSO multiplied by 100. For candidate compound titrations, the IC50 concentration was determined by fitting the equation y=AeBx to the data points and extrapolating the concentration where surviving fraction equaled 50. […]

Assay [8] deals with K562. As to the kind of experiment: Cell viability MTS assay. In kind it is cell-based, human. To be noted: 72 hours with compound. Summed up: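 IC50 values reflect 50% loss of viable cells, measured as MTS absorbance at 490 nm. Compound was present for 72 hours, with a 4-hour MTS/PMS step ended by SDS.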
For assay [9], the system named is NCI-H69. As to the kind of experiment: Cell viability MTS assay. In kind it is cell-based, human. To be noted: 72 hours with compound. The gist of the method: as §1
Assay [10] has as its system NCI-H82. The assay is described as follows: Cell viability MTS assay. The format is cell-based, human. To be noted: 72 hours with compound. Summed up: as §1
Assay [11] concerns NCI-H446. The assay is described as follows: Cell viability MTS assay. In kind it is cell-based, human. To be noted: 72 hours with compound. Summed up:
as §1

For assay [12], the system named is PC-3. As to the kind of experiment: Cell viability MTS assay. In kind it is cell-based, human. To be noted: 72 hours with compound. Summed up:
as §1

Assay [13] deals with SKOV-3. As to the kind of experiment: Cell viability MTS assay. In kind it is cell-based, human. To be noted: 72 hours with compound. Summed up:
as §1

Assay [14] deals with HCT-116. The assay is described as follows: Cell viability MTS assay. In kind it is cell-based, human. To be noted: 72 hours with compound. The gist of the method: as §1
Assay [15] deals with MCF7. The assay is described as follows: Cell viability MTS assay. In kind it is cell-based, human. To be noted: 72 hours with compound. Summed up: as §1
Assay [16] concerns SK-MEL-28. The assay is described as follows: Cell viability MTS assay. In kind it is cell-based, human. To be noted: 72 hours with compound. Summed up: as §1
Assay [17] relates to A549. As to the kind of experiment: Cell viability MTS assay. The format is cell-based, human. To be noted: 72 hours with compound. Summed up:
as §1

Structures are written as SMILES.

One may read the IC50 as the point on the concentration scale where inhibition reaches its midpoint. As for `O=C1NC(=O)[C@@H](c2cn3c4c(cccc24)CCC3)[C@H]1c1c[nH]c2ccccc12` (racemic) [(±)-Cis-3-(5,6-dihydro-4H-pyrrolo[3,2,1-ij]quinolin-1-yl)-4(1H-indol-3-yl)pyrrolidine-2,5-dione], in [1], the “reduction of normalized mean tumor volume compared to vehicle treated control” value was 80.5%. The IC50 amounted to 4.04 µM in assay [2] (Homo sapiens, MDA-MB-231, 72 hours with compound); 2.89 µM in assay [3] (Homo sapiens, HT-29, 72 hours with compound); 0.5 µM in [6]. Besides, the “reduction of mean tumor volume compared to vehicle treated control” value in assay [4] came out at 73.4%. For the same molecule, the “Protein Kinase C kinase activity in comparison to carrier alone” value in [5] is “did not reduce kinase activity”.
In the case of `O=C1NC(=O)[C@@H](c2cn3c4c(cccc24)CCC3)[C@@H]1c1c[nH]c2ccccc12` [(+)-3(S),4(R)-3-(5,6-dihydro-4H-pyrrolo[3,2,1-ij]quinolin-1-yl)-4(1H-indol-3-yl)pyrrolidine-2,5-dione], the half-maximal inhibitory concentration (IC50) in assay [7] is 4.1 µM; in assay [8], 4.52 µM; in assay [9], 10.5 µM; in assay [10], 9.83 µM; in assay [11], 8.55 µM; in assay [12], 18.7 µM. For the same molecule, the IC50 was 4.45 µM in [13]; 14.4 µM in [14]; 26.8 µM in assay [2] (72 hours with compound); > 100 µM in [15]; 30.1 µM in assay [3] (72 hours with compound); 25.5 µM in assay [16]. Moreover, in assay [17], the IC50 turned out to be 27.9 µM.
